Measurements as given in article PMC7035970 (Cell chemical biology, 2019).
≈ marks a conversion by molar mass, not a printed value.

How the values were obtained:
[1] = system: M. tuberculosis strain fgd1∷tn; test: MIC versus F420H2 deficient strain fgd1∷tn; format: cell-based, Mycobacterium tuberculosis; settings: Mycobacterium tuberculosis
[2] = system: M. tuberculosis strain mc^24914 (inhA promoter c(−15)t); test: microbe, parasite or virus in culture; format: cell-based, Mycobacterium tuberculosis; settings: for MIC: Mycobacterium tuberculosis
[3] = system: M. tuberculosis strain ddn∷tn; test: microbe, parasite or virus in culture; format: cell-based, Mycobacterium tuberculosis; settings: for MIC: Mycobacterium tuberculosis
[4] = system: M. tuberculosis strain DRM12 (katG S315T); format: cell-based, Mycobacterium tuberculosis
[5] = system: M. tuberculosis strain JSF-Mtb-1 (fbiC F567S, inhA promoter c(−15)t); format: cell-based, Mycobacterium tuberculosis
[6] = system: spontaneous M. tuberculosis JSF-2019 resistant mutant strains; format: cell-based, Mycobacterium tuberculosis
M. tuberculosis H37Rv = settings: introduction, no reference given; cited from earlier work
[7] = system: M. tuberculosis clinical strains TDR31, TDR36, and TDR116; format: cell-based, Mycobacterium tuberculosis

Compound | MIC [1] [µM] | MIC shift, mc^24914 (inhA overexpression) versus H37Rv [2] | MIC [2] [µM] | loss of susceptibility, ddn∷tn versus wild type H37Rv [3] [x] | MIC [3] [µM] | MIC [4] [µM] | MIC shift / loss of efficacy, DRM12 (KatG S315T) versus H37Rv [4] | MIC [5] [µM] | MIC [6] [µM] | MIC shift versus the parental strain H37Rv [6] [x] | loss of potency from any one resistance mutation (M. tuberculosis H37Rv) [fold] | activity versus clinical isolates with the KatG S315T mutation [7] | MIC change, JSF-Mtb-1 versus H37Rv [5] [x]
O=[N+]([O-])c1ccc(/C=N/Nc2nc(Nc3ccccc3)nc(N3CCOCC3)n2)o1 [JSF-2513, (E)-4-morpholino-6-(2-((5-nitrofuran-2-yl)methylene)hydrazineyl)-N-phenyl-1,3,5-triazin-2-amine] | 10 (≈ 4.1 µg/mL) | four-fold | 2.5 (≈ 1.03 µg/mL) | 2 | 1.3 (≈ 0.534 µg/mL) | 0.63 (≈ 0.259 µg/mL) | lack of an MIC shift | 20 (≈ 8.21 µg/mL) |  |  |  |  | 
NNC(=O)c1ccncc1 [INH, reference compound] | 0.16 (≈ 0.0219 µg/mL) | 8 x | 1.25 (≈ 0.171 µg/mL) |  | 0.16 (≈ 0.0219 µg/mL) | >10 | > 62 fold | 1.25 (≈ 0.171 µg/mL) | 0.16 (≈ 0.0219 µg/mL) | 8 |  |  | 
O=[N+]([O-])c1cn2c(n1)OC[C@@H](OCc1ccc(OC(F)(F)F)cc1)C2 [Pretomanid, reference compound] | > 40 |  | 0.16 (≈ 0.0575 µg/mL) | > 1000 |  | 0.039 (≈ 0.014 µg/mL) |  | >40 |  |  | ≥ 500 |  | 
C[C@]1(COc2ccc(N3CCC(Oc4ccc(OC(F)(F)F)cc4)CC3)cc2)Cn2cc([N+](=O)[O-])nc2O1 [delamanid] |  |  |  |  |  |  |  |  |  |  | ≥ 500 |  | 
O=[N+]([O-])c1ccc(/C=N/Nc2nc(Nc3ccccc3)nc(Nc3ccccc3)n2)o1 [JSF-2019, (E)-6-(2-((5-nitrofuran-2-yl)methylene)hydrazinyl)-N2,N4-diphenyl-1,3,5-triazine-2,4-diamine] | 1.3 (≈ 0.541 µg/mL) | 8 x | 0.63 (≈ 0.262 µg/mL) | 8 | 0.63 (≈ 0.262 µg/mL) | 0.078 (≈ 0.0325 µg/mL) | lack of an MIC shift | 5.0 (≈ 2.08 µg/mL) |  |  |  | maintained its wild type strain activity | 64
